Patent US11980607B2, “Methods of treating malignant lymphoproliferative disorders” (Actuate Therapeutics Inc., priority 2018, dated 2024)

What was measured:
[1] = test system: Diffuse large B-cell lymphoma; test: Treatment of Diffuse Large B-cell Lymphoma in a human; type: in vivo; conditions: 1 mg/kg per day, six 21 day cycles
Description: A human suffering from Diffuse large B-cell lymphoma is administered 1 mg/kg per day of 9-ING-41 for six 21 day cycles. After treatment, the human's DLBCL is in remission.

Mantle Cell lymphoma = test: Treatment of Mantle Cell Lymphoma in a human; type: in vivo; conditions: 3 mg/kg per day, six 21 day cycles
Description: A human suffering from Mantle Cell lymphoma is administered 3 mg/kg per day of 9-ING-41 for six 21 day cycles. After treatment, the human's MCL is in remission.

[2] = test system: Caspase 3/7 activity in lymphoma cells; test: EnzChek Caspase 3 assay; type: cell-based; conditions: 24 hours
Description: An EnzChek caspase 3 assay (Thermo Fisher Scientific) was performed in accordance with the manufacturer's instructions. 100,000 cells were plated in a 12-well plate and treated with varying concentrations of 9-ING-41 for 24 hours in duplicate. At the end of treatment, cells were centrifuged at 200 rcf for 5 minutes and washed once with 1× PBS and lysed in 50 μL of 1× lysis buffer provided by the kit. For efficient lysis, cells were subjected to a single freeze-thaw cycle. The lysed cells were centrifuged again to remove cell debris, and the supernatant was used in the assay. 50 μL of 2× substrate working solution containing Z-DEVD-R110 substrate was added to the cell lysate, with a subsequent incubation at room temperature for 45 minutes. […] Both of these products were then measured using a Biotek synergy 2 fluorescent plate reader at corresponding wavelengths (excitation 496 nm/emission 520 nm). The fluorescent reading was normalized to the amount of protein in the cell lysate as determined via standard BCA assay (Pierce Thermo Fisher Scientific). Relative fluorescence was calculated after setting the no-treatment control to 1. […]

[3] = test system: T-cell lymphoma (non-Hodgkin's); test: Treatment of T-Cell Lymphoma in a human; type: in vivo; conditions: 2 mg/kg per day, six 21 day cycles
Description: A human suffering from T-cell lymphoma (non-Hodgkin's) is administered 2 mg/kg per day of 9-ING-41 for six 21 day cycles. After treatment, the human's TCL is in remission.

TCL and MCL lines = test: Thymidine incorporation assay in TCL and MCL lines; type: cell-based, human; conditions: 9-ING-41 concentrations as low as 1.0 μM
Description: (§1) Unstimulated peripheral blood B- and T-lymphocytes isolated from a healthy donor were used as normal control. Pro-apoptotic effect of the GSK3 inhibitor 9-ING-41 in various MCL and TCL lines (A) and DLBCL lines (B). (C) Cell proliferation profile of various lymphoma cell lines upon treatment with 9-ING-41. Results (A-C) are from 3 independent experiments.
Cells were seeded at 1×10^4 cells/well in 96 well plates, and incubated with 9-ING-41 at indicated concentrations for 48 hours followed by pulsing with tritium labeled thymidine for overnight before being analyzed for thymidine uptake.
9-ING-41 can specifically induce lymphoma cell apoptosis without affecting normal lymphocytes. The thymidine incorporation assay in the presence or absence of 9-ING-41 was performed to test the role of GSK3 in lymphoma cell proliferation. […] The DLBCL lines required slightly higher concentrations. The IC50 of 9-ING-41 on cell proliferation for various lymphoma cell lines was calculated (Table 1).

Jeko cells = test: Mitotic stage morphology (Wright stain, differential counting); type: cell-based, human; conditions: 1.0 uM, 24 hours
Description: (A) Cartoon depiction of the sequential steps (M1-M5) during mitosis (purchased from Shutterstock and modified). (B). Representative Wright stain images of Jeko cells untreated and treated with 1.0 uM 9-ING-41 for 24 hours. […] (C). Bar chart showing the number of mitotic M1-M5 cells identified when 100 untreated or 9-ING-41 treated Jeko cells were counted.
Although cells arrested in G2/M appear as a single DNA content (4N) peak on a flow cytometry histogram (FIG. 6A), there are actually at least 5 sequential steps (M1-M5) in G2/M critical to successful cell division. These include prophase (M1, chromosome condensation, mitotic spindle formation starts), prometaphase (M2, nuclear membrane breakdown, centrosome polarization), metaphase (M3, chromosome pairs align middle plane), anaphase (M4, daughter chromatids separate), telophase (M5, reformation of daughter nuclei), and the final cytokinesis (separation of two daughter cells). Each of these discrete steps has a unique identifiable nuclear morphology on Wright's stained cells (depicted in FIG. 7A). The morphology of untreated and 9-ING-41 treated Jeko cells to determine at what stage they become arrested was examined. […] These observations support the conclusion that GSK3 activity is necessary for the progression of mitotic prophase.

Jeko = test: Apoptosis assay (Annexin V/PI), cell survival; type: cell-based; conditions: Homo sapiens; Jeko (MCL), 48 hours
Description: (§2) Cells were seeded at 5×10^5 cells/well in 24 well plates, and incubated with 9-ING-41 at indicated concentrations for 48 hours. The cells were then stained with FITC conjugated Annexin V (Life Technologies) and Propidium Iodide followed by analysis on a BD FACS Calibur flow cytometer.
(§3) The IC50S of 9-ING-41 on cell survival and proliferation was calculated using an on-line IC50 calculation tool (https://www.aatbio.com/tools/ic50-calculator/).
(§4) Given that both GSK3α and GSK3β are overexpressed in lymphoma cells, and that both enzymes are implicated in multiple signaling pathways critical for cell functions, whether GSK3α and GSK3β are functionally supporting the survival and proliferation of lymphoma cells was examined. […] The inhibitory concentrations of 9-ING-41 at half of the maximal effect (IC50) on cell survival of various lymphoma cell lines was calculated (Table 1).

Karpas-299 = test: Apoptosis assay (Annexin V/PI), cell survival; type: cell-based; conditions: Homo sapiens; Karpas-299 (TCL), 48 hours
Description: as §2, §3, §4

SeAx = test: Apoptosis assay (Annexin V/PI), cell survival; type: cell-based; conditions: Homo sapiens; SeAx (TCL), 48 hours
Description: as §2, §3, §4

Mino = test: Apoptosis assay (Annexin V/PI), cell survival; type: cell-based; conditions: Homo sapiens; Mino (MCL), 48 hours
Description: as §2, §3, §4

OCI-Ly3 = test: Apoptosis assay (Annexin V/PI), cell survival; type: cell-based; conditions: Homo sapiens; OCI-Ly3 (DLBCL), 48 hours
Description: as §2, §3, §4

OCI-LY1 = test: Apoptosis assay (Annexin V/PI), cell survival; type: cell-based; conditions: Homo sapiens; OCI-LY1 (DLBCL), 48 hours
Description: as §2, §3, §4

[4] = test system: purified normal unstimulated T lymphocytes or peripheral blood mononuclear cells; test: Apoptosis assay in normal cells; type: cell-based, human; conditions: even at 10.0 μM 9-ING-41
Description: as §1, §2, §4

Cn1cc(C2=C(c3coc4ccc(F)cc34)C(=O)NC2=O)c2cc3c(cc21)OCO3 [9-ING-41, 3-(5-Fluorobenzofuran-3-yl)-4-(5-methyl-5H-[1,3]dioxolo[4,5-f]indol-7-yl)pyrrole-2,5-dione]
Outcome after treatment [1]: in remission | Outcome after treatment (Mantle Cell lymphoma): in remission | Concentration giving an increase in Caspase 3/7 activity [2]: ≥ 0.5 µM | Outcome after treatment [3]: in remission | Proliferation rate of all TCL and MCL lines (TCL and MCL lines): profoundly inhibited | Mitotic stages seen among 100 mitotic cells (Jeko cells): only prophase (M1) cells | IC50 (Jeko): 1.28 µM | IC50 (Karpas-299): 3.34 µM | IC50 (SeAx): 1.6 µM | IC50 (Mino): 0.55 µM | IC50 (OCI-Ly3): 3.76 µM | IC50 (OCI-LY1): 3.05 µM | Apoptosis in normal cells [4]: no significant apoptosis
